Data published in US9227953B2, “Crystal form” (Glaxo Group Limited, priority 2011, dated 2016).

How the values were obtained:
Format in all cases: physicochemical
[1] = chemical stability of the crystal form
[2] = relative thermodynamic stability of rilapladib crystal forms; details: compared with other crystalline forms of rilapladib
Dynamic Vapor Sorption = details: product of Example 1(d)
Experimental: The product was characterized in several ways and determined to be the form termed Form 1 rilapladib. It provided an XRPD pattern as represented in FIG. 3, a Raman spectrum as represented in FIG. 4, and a capillary melting point of 116-118° C.

Row | chemical stability [1] | hygroscopicity by Dynamic Vapor Sorption (Dynamic Vapor Sorption) | SMILES | thermodynamic stability [2]
1 | very good chemical stability |  | COCCN1CCC(N(Cc2ccc(-c3ccc(C(F)(F)F)cc3)cc2)C(=O)Cn2c(SCc3cccc(F)c3F)cc(=O)c3ccccc32)CC1 [rilapladib Form 3, N-[1-(2-methoxyethyl)-piperidin-4-yl]-2-[2-(2,3-difluorobenzylthio)-4-oxo-4H-quinolin-1-yl]-N-(4′-trifluoromethylbiphenyl-4-ylmethyl)acetamide] | more thermodynamically stable than Form 1 and Form 2
2 |  | non-hygroscopic | COCCN1CCC(N(Cc2ccc(-c3ccc(C(F)(F)F)cc3)cc2)C(=O)Cn2c(SCc3cccc(F)c3F)cc(=O)c3ccccc32)CC1 [Form 1 rilapladib, N-[1-(2-methoxyethyl)-piperidin-4-yl]-2-[2-(2,3-difluorobenzylthio)-4-oxo-4H-quinolin-1-yl]-N-(4′-trifluoromethylbiphenyl-4-ylmethyl)acetamide] | 
